Eleven molecules from ChEMBL document CHEMBL1201862, “PubChem BioAssay data set” (2004) can be followed below.

Some test systems named below: CAKI-1; UACC-62; KM12; A549; RXF 393; SW-620; UO-31; NCI-H226; HL-60; CCRF-CEM; MOLT-4; OVCAR-5; Malme-3M; MDA-MB-231; HOP-62; M14; DU-145; UACC-257; LOX IMVI; NCI/ADR-RES.
Common to all, as to experiment: NCI-60 cell line screen, 48 h

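Protocol summary: plate cells (96-well), add compound at 5 concentrations, incubate 48 h, interpolate endpoints linearly. GI50 marks 50% less growth.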 Activity calls are given as the source filed them. Cut-off read from the data, not from the text of the source: active = GI50 up to about 1.1 µM and inactive = higher. A value given as a limit tells only on which side of the number the result lay.

`COc1ccc2[nH]c3c4c(ccc3c2c1)C(=O)C=CC4=O`: the GI50 with CAKI-1 was 9.25 µM (inactive); with UACC-62, 16.7 µM (inactive); in the assay on KM12 it was 21.6 µM (inactive); in the assay on A549, 28.6 µM (inactive); in the assay on RXF 393, 2.48 µM (inactive); in the assay on SW-620 it was 2.39 µM (inactive). The GI50 in the assay with UO-31 is 14.8 µM (inactive); in the assay on NCI-H226, 21.6 µM (inactive); with HL-60, 0.439 µM (active); in the assay with CCRF-CEM, 0.324 µM (active); with MOLT-4, 0.448 µM (active); with OVCAR-5 it was 20.4 µM (inactive). The GI50 with Malme-3M was 7.73 µM (inactive); in the assay on MDA-MB-231 it was 17.4 µM (inactive); with HOP-62 it was 51.2 µM (inactive); with M14 it was 10 µM (inactive); in the assay with DU-145, 34.8 µM (inactive); with UACC-257, 10 µM (inactive). Also, in the assay with LOX IMVI, the GI50 was 9.31 µM (inactive).

In the case of `O=C(CN1CCCCC1)Nc1ccc2sc3ccccc3c(=O)c2n1`, the GI50 with CAKI-1 is 13.6 µM (inactive); in the assay with UACC-62, 15.4 µM (inactive); with KM12, 19.1 µM (inactive); in the assay with A549, 15 µM (inactive); in the assay on NCI/ADR-RES, 7.82 µM (inactive); in the assay on SW-620 it was 5.25 µM (inactive). Further, the GI50 in the assay with UO-31 is 9.95 µM (inactive); in the assay on HL-60, 17.1 µM (inactive); with CCRF-CEM, 5.92 µM (inactive); in the assay with MOLT-4, 2.69 µM (inactive); in the assay with OVCAR-5, 18.2 µM (inactive); with Malme-3M, 32.1 µM (inactive). Moreover, the GI50 in the assay with MDA-MB-231 is 18.5 µM (inactive); in the assay on HOP-62 it was 13.8 µM (inactive); in the assay on M14, 17.9 µM (inactive); in the assay on DU-145, 20.3 µM (inactive); in the assay with UACC-257 it was 18.2 µM (inactive); in the assay with LOX IMVI, 7.01 µM (inactive).

With `C=C1C(=O)O[C@H]2C1[C@H](OC(=O)/C(C)=C\COC(C)=O)C[C@]1(CO1)[C@@H]1[C@H](O)[C@H]3O[C@@]3(C)[C@@H]12` (some centres not stated), the GI50 is 14.3 µM (inactive) in the assay on CAKI-1; 15.8 µM (inactive) with UACC-62; 14.8 µM (inactive) in the assay with KM12; 49.2 µM (inactive) in the assay on A549; 16.8 µM (inactive) in the assay on RXF 393; 21.4 µM (inactive) with NCI/ADR-RES. In addition, the GI50 was 13.2 µM (inactive) in the assay with SW-620; > 88.7 µM (inactive) with UO-31; 26.8 µM (inactive) in the assay with NCI-H226; 13.9 µM (inactive) in the assay with HL-60; 10.5 µM (inactive) in the assay on CCRF-CEM; 19.5 µM (inactive) in the assay with MOLT-4. For the same molecule, the GI50 in the assay on OVCAR-5 was > 71.6 µM (inactive); in the assay on Malme-3M, 20.7 µM (inactive); in the assay with HOP-62, > 100 µM (inactive); in the assay with UACC-257 it was 16.8 µM (inactive); with LOX IMVI it was 16.7 µM (inactive).

In the case of `C=C1C(=O)OC2/C=C(\C)CC(O)/C=C(/CO)CC(OC(=O)/C(C)=C/C)C12` (configuration not stated), the GI50 is 34.8 µM (inactive) in the assay with CAKI-1; 37.8 µM (inactive) in the assay with UACC-62; 45 µM (inactive) in the assay with KM12; 155 µM (inactive) in the assay on A549; 14.4 µM (inactive) in the assay on RXF 393; 130 µM (inactive) in the assay with NCI/ADR-RES. The GI50 was 17.6 µM (inactive) with SW-620; 173 µM (inactive) in the assay on UO-31; 30 µM (inactive) with NCI-H226; 13.3 µM (inactive) with HL-60; 13.9 µM (inactive) in the assay with CCRF-CEM; 18.2 µM (inactive) in the assay on MOLT-4. Besides, the GI50 in the assay on OVCAR-5 is 147 µM (inactive); with Malme-3M, 18.9 µM (inactive); in the assay on HOP-62 it was 95.3 µM (inactive); in the assay on UACC-257, 45.6 µM (inactive); in the assay with LOX IMVI, 12.3 µM (inactive).

As to `Cc1cccc(C)c1NC(=O)/C(Cc1nc2ccc([N+](=O)[O-])cc2nc1O)=N\NC(N)=O`, the GI50 in the assay on CAKI-1 was > 100 µM (inactive); in the assay on UACC-62 it was 80.9 µM (inactive); with KM12 it was 57.5 µM (inactive); in the assay on A549, > 100 µM (inactive); in the assay on NCI/ADR-RES it was 85.5 µM (inactive); in the assay with SW-620 it was 52.5 µM (inactive). For the same molecule, the GI50 was 45.3 µM (inactive) with UO-31; > 100 µM (inactive) in the assay with NCI-H226; 32.5 µM (inactive) with HL-60; 19.6 µM (inactive) with CCRF-CEM; 31.6 µM (inactive) in the assay with MOLT-4; > 100 µM (inactive) in the assay on OVCAR-5. Further, the GI50 with Malme-3M was > 100 µM (inactive); with MDA-MB-231 it was > 100 µM (inactive); in the assay with M14, > 100 µM (inactive); in the assay on DU-145, > 100 µM (inactive); in the assay on UACC-257, > 100 µM (inactive); in the assay on LOX IMVI it was 22.1 µM (inactive).

In the case of `Cc1cn(C2CC(O)C(COC(=O)NCCC(F)(F)C(F)(F)C(F)(F)C(F)(F)F)O2)c(=O)[nH]c1=O` (configuration not stated), the GI50 was > 100 µM (inactive) in the assay on CAKI-1; > 100 µM (inactive) in the assay on UACC-62; > 100 µM (inactive) in the assay on KM12; > 100 µM (inactive) in the assay on A549; 78.5 µM (inactive) with RXF 393; > 100 µM (inactive) in the assay on SW-620. The GI50 with UO-31, in the assay with NCI-H226, with HL-60, with CCRF-CEM, in the assay with MOLT-4 and with OVCAR-5 was > 100 µM (inactive) each time. The GI50 in the assay with Malme-3M, in the assay on MDA-MB-231, in the assay with HOP-62, in the assay on M14, in the assay on DU-145 and in the assay with UACC-257 was > 100 µM (inactive) throughout.

For `COc1c(Cl)nc2ccccc2c1N=[N+]=[N-]`, the GI50 with CAKI-1 is 49.4 µM (inactive); with UACC-62 it was 54.2 µM (inactive); in the assay with KM12 it was > 100 µM (inactive); with A549, > 100 µM (inactive); in the assay with RXF 393, 30.1 µM (inactive); in the assay on SW-620, > 100 µM (inactive). The GI50 is 17.3 µM (inactive) in the assay on UO-31; 53.3 µM (inactive) in the assay on HL-60; 88.9 µM (inactive) in the assay with CCRF-CEM; 19.2 µM (inactive) in the assay on MOLT-4; > 100 µM (inactive) with OVCAR-5; > 100 µM (inactive) in the assay on Malme-3M. Moreover, the GI50 in the assay on MDA-MB-231 was 77.1 µM (inactive); in the assay on HOP-62, 39.7 µM (inactive); in the assay on M14 it was > 100 µM (inactive); in the assay with DU-145 it was > 100 µM (inactive); with UACC-257, > 100 µM (inactive); with LOX IMVI, 48.6 µM (inactive).

For the molecule `COc1ccc(C(=O)N2CCc3c([nH]c4ccccc34)C2C(=O)O)o1` (configuration not stated), the GI50 with CAKI-1, in the assay with UACC-62, in the assay on KM12, with A549, with NCI/ADR-RES and with SW-620 was > 10 µM (inactive) each time. Besides, the GI50 in the assay on HL-60, with CCRF-CEM, in the assay on MOLT-4, with Malme-3M, in the assay with MDA-MB-231 and with HOP-62 was > 10 µM (inactive) each time. Besides, the GI50 with M14, in the assay with DU-145 and in the assay on UACC-257 was > 10 µM (inactive) throughout.

`COC(=O)CP1(=O)OC2C(C3CCC2(C)C3(C)C)N1c1cc(C(F)(F)F)cc(C(F)(F)F)c1` (configuration not stated): the GI50 was 24.9 µM (inactive) in the assay with CAKI-1; > 100 µM (inactive) in the assay on UACC-62; 17.1 µM (inactive) in the assay on KM12; 30 µM (inactive) in the assay with A549; 20.6 µM (inactive) in the assay with NCI/ADR-RES; 24.1 µM (inactive) in the assay on SW-620. Further, the GI50 in the assay on UO-31 was 32.9 µM (inactive); in the assay on NCI-H226, 31.6 µM (inactive); in the assay on MOLT-4, 16.7 µM (inactive); in the assay on OVCAR-5 it was 25.3 µM (inactive); in the assay on Malme-3M it was 17.3 µM (inactive); in the assay on MDA-MB-231, 20.6 µM (inactive). The GI50 in the assay on HOP-62 is 31.2 µM (inactive); in the assay on M14, 32.3 µM (inactive); in the assay on DU-145, 31.3 µM (inactive); with UACC-257 it was 32.8 µM (inactive); in the assay on LOX IMVI it was 22.4 µM (inactive).

Regarding `COc1cc([N+](=O)[O-])ccc1NC(=O)C(F)(F)F`, the GI50 in the assay on CAKI-1 was > 100 µM (inactive); in the assay on UACC-62, 43.1 µM (inactive); with KM12, 97.9 µM (inactive); in the assay on A549, > 100 µM (inactive); in the assay with NCI/ADR-RES, > 100 µM (inactive); with SW-620, > 100 µM (inactive). Moreover, the GI50 in the assay on UO-31 was 84.3 µM (inactive); with NCI-H226 it was > 100 µM (inactive); with HL-60, > 100 µM (inactive); in the assay on CCRF-CEM it was > 100 µM (inactive); with MOLT-4, > 100 µM (inactive); in the assay on OVCAR-5, > 100 µM (inactive). Moreover, the GI50 in the assay with MDA-MB-231, in the assay on HOP-62, in the assay with M14, in the assay with DU-145, with UACC-257 and in the assay with LOX IMVI was > 100 µM (inactive) each time.

As to `C=CCC1C2CCC(O[Si](C(C)C)(C(C)C)C(C)C)(C(C(=O)OC)C2)C1O` (configuration not stated), the GI50 in the assay with CAKI-1 was > 100 µM (inactive); in the assay on UACC-62, 55.2 µM (inactive); with KM12, 54.5 µM (inactive); in the assay on A549 it was 32.9 µM (inactive); with NCI/ADR-RES, > 100 µM (inactive); in the assay with SW-620 it was > 100 µM (inactive). The GI50 with UO-31 was 49.2 µM (inactive); in the assay with NCI-H226, > 100 µM (inactive); in the assay with HL-60, 13.3 µM (inactive); with CCRF-CEM it was 60.8 µM (inactive); with MOLT-4, 35.2 µM (inactive); with OVCAR-5 it was > 100 µM (inactive). Further, the GI50 in the assay on MDA-MB-231 was > 100 µM (inactive); with HOP-62, > 100 µM (inactive); with M14 it was 94.8 µM (inactive); in the assay with DU-145, > 100 µM (inactive); with UACC-257, 38.3 µM (inactive).
